Experimental data as given in ChEMBL document CHEMBL2375237, “Optimization of allosteric MEK inhibitors. Part 1: Venturing into underexplored SAR territories” (Bioorg Med Chem Lett, 2013).
Activity calls are given as the source filed them. The rule behind the calls is not given here.

Tests used:
[1] = system: HCT-116; assay: Antiproliferative activity against human HCT116 cells expressing KRAS G13D mutant; format: functional, cell-based
[2] = system: A-375; assay: cells; conditions: Homo sapiens, A-375, 72 h
Description: Antiproliferative activity against human A375 cells expressing BRAF V600E mutant after 72 hrs by Cell titer-glo assay

[3] = molecular target: Dual specificity mitogen-activated protein kinase kinase 1 (Homo sapiens, UniProt Q02750); assay: Inhibition of MEK1 (unknown origin) after 2 hrs by fluorescence assay
[4] = Ratio of AUC in mouse brain to AUC in mouse plasma at 5 mg/kg, iv up to 3 hrs; format: ADME, organism-based; set-up: dose 5 mg/kg, route intravenous; conditions: read-out: Ratio AUC
[5] = Oral bioavailability in rat at 1 mg/kg; format: ADME, organism-based; conditions: in vivo
[6] = Terminal half life in rat at 0.5 mg/kg, iv and 1 mg/kg, po; format: ADME, organism-based; conditions: in vivo, read-out: beta t1/2 (converted)
[7] = Volume of distribution at steady state in rat at 0.5 mg/kg, iv and 1 mg/kg, po; format: ADME, organism-based; conditions: in vivo, read-out: Vdss
[8] = Blood clearance in rat at 0.5 mg/kg, iv and 1 mg/kg, po; format: ADME, organism-based; conditions: whole blood
[9] = Drug metabolism in hepatocytes (unknown origin) assessed as demethylation of the sulfamide moiety; format: ADME, cell-based, Hepatocyte
[10] = Drug metabolism in liver microsomes (unknown origin) assessed as demethylation of the sulfamide moiety; format: ADME, Microsome
[11] = Oral bioavailability in rat; format: ADME, organism-based; conditions: in vivo
[12] = Terminal half life in rat at 1 mg/kg, iv; format: ADME, organism-based; set-up: dose 1 mg/kg, route intravenous; conditions: in vivo, read-out: beta t1/2 (converted)
[13] = Blood clearance in rat at 1 mg/kg, iv; format: ADME, organism-based; set-up: dose 1 mg/kg, route intravenous; conditions: whole blood
[14] = system: A549; conditions: Homo sapiens
Description: Antitumor activity against human A549 cells xenografted in nude mouse assessed as tumor growth inhibition at 3 mg/kg, po qd

[15] = system: MIA PaCa-2; assay: Antiproliferative activity against human MIAPaCa2 cells; format: functional, cell-based
[16] = system: LoVo; assay: Antiproliferative activity against human LoVo cells; format: functional, cell-based
[17] = system: A549; assay: Antiproliferative activity against human A549 cells; format: functional, cell-based
[18] = Oral bioavailability in rat at 5 mg/kg; format: ADME, organism-based; conditions: in vivo
[19] = Terminal half life in rat at 0.5 mg/kg, iv and 5 mg/kg, po; format: ADME, organism-based; conditions: in vivo, read-out: beta t1/2 (converted)
[20] = Volume of distribution at steady state in rat at 0.5 mg/kg, iv and 5 mg/kg, po; format: ADME, organism-based; conditions: in vivo, read-out: Vdss
[21] = Blood clearance in rat at 0.5 mg/kg, iv and 5 mg/kg, po; format: ADME, organism-based; conditions: whole blood
[22] = system: Caco-2; assay: Efflux ratio of permeability in human Caco2 cells relative to control; format: ADME, cell-based
[23] = Oral bioavailability in rat at 0.6 mg/kg; format: ADME, organism-based; conditions: in vivo
[24] = Terminal half life in rat at 0.3 mg/kg, iv and 0.6 mg/kg, po; format: ADME, organism-based; conditions: in vivo, read-out: beta t1/2 (converted)
[25] = Volume of distribution at steady state in rat at 0.3 mg/kg, iv and 0.6 mg/kg, po; format: ADME, organism-based; conditions: in vivo, read-out: Vdss
[26] = Blood clearance in rat at 0.3 mg/kg, iv and 0.6 mg/kg, po; format: ADME, organism-based; conditions: whole blood
[27] = Terminal half life in dog; format: ADME, organism-based, Canis lupus familiaris; conditions: in vivo, read-out: beta t1/2 (converted)
[28] = Terminal half life in mouse; format: ADME, organism-based; conditions: in vivo, read-out: beta t1/2 (converted)
[29] = system: HCT-116; assay: Ratio of AZD6244 IC50 to compound IC50 for human HCT116 cells expressing KRAS G13D mutant; format: functional
[30] = Terminal half life in rat at 1 mg/kg, iv and 1 mg/kg, po; format: ADME, organism-based; conditions: in vivo, read-out: beta t1/2 (converted)
[31] = Volume of distribution at steady state in rat at 1 mg/kg, iv and 1 mg/kg, po; format: ADME, organism-based; conditions: in vivo, read-out: Vdss
[32] = Blood clearance in rat at 1 mg/kg, iv and 1 mg/kg, po; format: ADME, organism-based; conditions: whole blood
[33] = system: A549; conditions: Homo sapiens; remark: listed apart in the source
Description: Antitumor activity against human A549 cells xenografted in nude mouse assessed as tumor growth inhibition at 1 mg/kg, po administered every other day

[34] = system: A549; conditions: Homo sapiens; remark: listed apart in the source
Description: Antitumor activity against human A549 cells xenografted in nude mouse assessed as tumor growth inhibition at 1 mg/kg, po qd

Dual specificity mitogen-activated protein kinase kinase 1, sequence (Q02750 whole entry): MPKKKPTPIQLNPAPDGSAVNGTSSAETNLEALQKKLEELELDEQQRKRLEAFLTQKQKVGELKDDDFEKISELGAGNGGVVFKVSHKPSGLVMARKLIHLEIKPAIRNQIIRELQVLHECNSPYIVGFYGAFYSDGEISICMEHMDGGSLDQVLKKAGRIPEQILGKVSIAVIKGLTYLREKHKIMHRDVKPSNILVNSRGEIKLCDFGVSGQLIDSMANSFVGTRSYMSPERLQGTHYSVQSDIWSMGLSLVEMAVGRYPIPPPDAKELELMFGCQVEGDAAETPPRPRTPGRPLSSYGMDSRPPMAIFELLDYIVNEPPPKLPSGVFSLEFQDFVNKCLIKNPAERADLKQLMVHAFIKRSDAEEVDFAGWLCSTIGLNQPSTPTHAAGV

Compound | IC50 [1] [nM] | IC50 [2] [nM] | IC50 [3] [nM] | also measured
CC(=O)Nc1cccc(Oc2cc(F)cc(Nc3ccc(I)cc3F)c2C(N)=O)c1 | 2290 | 50 |  | 
CNS(=O)(=O)Nc1cccc(Oc2cc(F)cc(Nc3ccc(I)cc3F)c2C(N)=O)c1 | 103 | 16 |  | 
CN(C)S(=O)(=O)N1CCC[C@H]1COc1cc(F)cc(Nc2ccc(I)cc2F)c1C(N)=O |  | 1120 | 1000 | 
NC(=O)c1c(Nc2ccc(I)cc2F)cc(F)cc1Oc1cccc(CS(N)(=O)=O)c1 | 3490 | 37 | 32 | 
CC(=O)Nc1ccc(Oc2cc(F)cc(Nc3ccc(I)cc3F)c2C(N)=O)cc1 |  | 808 | 539 | 
CC(C)C(=O)Nc1cccc(Oc2cc(F)cc(Nc3ccc(I)cc3F)c2C(N)=O)c1 | 8810 | 192 | 48 | 
CCS(=O)(=O)Nc1cccc(Oc2cc(F)cc(Nc3ccc(I)cc3F)c2C(N)=O)c1 | 287 | < 30 | 15 | 
NC(=O)c1c(Nc2ccc(I)cc2F)cc(F)cc1OC[C@@H]1CCCN1 | 3030 | 124 | 26 | 
CC(C)S(=O)(=O)Nc1cccc(Oc2cc(F)cc(Nc3ccc(I)cc3F)c2C(N)=O)c1 | 459 | 17 | 18 | 
CN(C)S(=O)(=O)Nc1cccc(Oc2cc(F)cc(Nc3ccc(I)cc3F)c2C(N)=O)c1 | 155 | 18 | 21 | Drug metabolism [9]: Active; Drug metabolism [10]: Active; bioavailability [11]: 55%; half-life [12]: 2.2 h; clearance [13]: 35 mL/min/kg
O=C(NOC[C@H](O)CO)c1ccc(F)c(F)c1Nc1ccc(I)cc1F [MIRDAMETINIB] |  |  |  | bioavailability [5]: 104%; half-life [6]: 5.4 h; Vd [7]: 1.7 L/kg; clearance [8]: 8.33 mL/min/kg; TGI [14]: Active
NC(=O)c1c(Nc2ccc(I)cc2F)cc(F)cc1Oc1ccccc1 |  | 408 | 99 | 
CCS(=O)(=O)N1CCC[C@H]1COc1cc(F)cc(Nc2ccc(I)cc2F)c1C(N)=O |  | 323 |  | 
NC(=O)c1c(Nc2ccc(I)cc2F)cc(F)cc1Oc1cccc(NS(=O)(=O)N2CCCC2)c1 | 412 | 28 | 21 | 
NC(=O)c1c(Nc2ccc(I)cc2F)cc(F)cc1Oc1ccc2oc(=O)[nH]c2c1 | 4510 | 35 | 36 | 
NC(=O)c1c(Nc2ccc(I)cc2F)cc(F)cc1OC[C@@H]1CCCN1S(N)(=O)=O | 3040 | 172 | 73 | 
NC(=O)c1c(Nc2ccc(I)cc2F)cc(F)cc1Oc1cccc(NS(N)(=O)=O)c1 | 180 | 4 | 14 | half-life [27]: 110 h; half-life [28]: 34 h; IC50 [15]: 23 nM; IC50 [16]: 175 nM; IC50 [17]: 132 nM; Ratio IC50 [29]: >=10; Kp at 3 h [4]: < 0.02; bioavailability [5]: 62%; half-life [30]: 32 h; Vd [31]: 2 L/kg; clearance [32]: 0.5 mL/min/kg; TGI [33]: Active; TGI [34]: Active
NC(=O)c1c(Nc2ccc(I)cc2F)cc(F)cc1Oc1cccnc1 | 4180 | 141 | 76 | 
NC(=O)c1c(Nc2ccc(I)cc2F)cc(F)cc1Oc1ccc2cn[nH]c2c1 |  | 221 | 54 | 
CS(=O)(=O)Nc1cccc(Oc2cc(F)cc(Nc3ccc(I)cc3F)c2C(N)=O)c1 | 3800 | 23 | 21 | 

Further lines, with some results ahead:

IC50 [1] [nM] | IC50 [2] [nM] | IC50 [3] [nM] | Compound | also measured
2450 | 40 | 43 | CC(C)(O)C(O)CCOc1cc(F)cc(Nc2ccc(I)cc2F)c1C(N)=O (stereo unspecified) | 
3400 | 148 |  | NC(=O)c1c(Nc2ccc(I)cc2F)cc(F)cc1OCC[C@@H](O)CO | Kp at 3 h [4]: 0.73; bioavailability [5]: 70%; half-life [6]: 2.4 h; Vd [7]: 4.4 L/kg; clearance [8]: 24.8 mL/min/kg
 | 240 |  | CC(O)(CO)CCOc1cc(F)cc(Nc2ccc(I)cc2F)c1C(N)=O (stereo unspecified) | 
3100 | 31 |  | Cn1cnc2c(F)c(Nc3ccc(Br)cc3Cl)c(C(=O)NOCCO)cc21 [SELUMETINIB] | IC50 [15]: 142 nM; IC50 [16]: 2830 nM; IC50 [17]: 1750 nM; Kp at 3 h [4]: < 0.02; bioavailability [18]: 14%; half-life [19]: 3.8 h; Vd [20]: 0.2 L/kg; clearance [21]: 1 mL/min/kg
 | 973 |  | CN1CCC[C@H]1COc1cc(F)cc(Nc2ccc(I)cc2F)c1C(N)=O | 
1250 | 98 | 16 | NC(=O)c1c(Nc2ccc(I)cc2F)cc(F)cc1OCC[C@@H](O)Cn1ccnc1 | fold change (FC) [22]: 10; Kp at 3 h [4]: 0.04; bioavailability [23]: 20%; half-life [24]: 8.4 h; Vd [25]: 10.3 L/kg; clearance [26]: 9.67 mL/min/kg
 | 354 | 74 | COc1cc(F)cc(Nc2ccc(I)cc2F)c1C(N)=O | 
2070 | 151 | 13 | NC(=O)c1c(Nc2ccc(I)cc2F)cc(F)cc1OCC[C@@H](O)Cn1cccn1 | 
 | 240 |  | NC(=O)c1c(Nc2ccc(I)cc2F)cc(F)cc1OCC[C@H](O)CO | 
 | 350 | 63 | NC(=O)c1c(Nc2ccc(I)cc2F)cc(F)cc1OC[C@H](O)CCO | 
